Test results taken from US20250177581A1, “NTSR1-TARGETED RADIOPHARMACEUTICALS AND DNA DAMAGE RESPONSE INHIBITOR COMBINATION THERAPY” (Fusion Pharmaceuticals Inc., priority 2022, published 2025).

Test system: CT-26-mNTSR1 tumor
Experiment: Combination of [^225Ac]-Compound A and Olaparib in CT-26-mNTSR1 tumor bearing mice, tumor growth
Format: in vivo, mouse
Conditions: olaparib monotherapy at 50 mg/kg
Experimental: An in vivo study was conducted to test the effect of [^225Ac]-Compound A (as described in Example 3) in combination with Olaparib in CT-26-mNTSR1 tumor bearing mice.

**Q.** How did the “reduction in tumor growth compared to control mice” value turn out when O=C(c1cc(Cc2n[nH]c(=O)c3ccccc23)ccc1F)N1CCN(C(=O)C2CC2)CC1 [olaparib] was run?
**A.** The value was “slight or neglible reduction in tumor growth”.
